Earlier results in the PKSmart pharmacokinetics tables (Seal et al. 2025).

Assays:
[1] = not given per row; by the article one of three: Lombardo et al. 2013, J Clin Pharmacol 53:178, doi 10.1177/0091270012440282; 'New Drugs at FDA', novel drug approvals for 2021 and 2022 (the article's reference 43); Yap, Li, Chen 2006, J Mol Graph Model 24:383, doi 10.1016; details: human; in vivo
[2] = Lombardo et al. 2013, J Clin Pharmacol 53:178, doi 10.1177/0091270012440282; details: for Vd / clearance: in vivo, iv; for fraction unbound: plasma
[3] = Lombardo, Berellini, Obach 2018, Drug Metab Dispos 46:1466, doi 10.1124/dmd.118.082966; details: human; for MRT / Vd / clearance / half-life: in vivo, iv; for fraction unbound: plasma

| SMILES | clearance [1] [mL/min/kg] | Vd ([2]; dog) [L/kg] | clearance ([2]; dog) [mL/min/kg] | Vd ([2]; monkey) [L/kg] | clearance ([2]; monkey) [mL/min/kg] | Vd ([2]; rat) [L/kg] | clearance ([2]; rat) [mL/min/kg] | MRT [3] [h] | Vd [3] [L/kg] | clearance [3] [mL/min/kg] | half-life [3] [min] | fraction unbound [3] | fraction unbound ([2]; monkey) | fraction unbound ([2]; rat) | fraction unbound ([2]; dog) |
| --- | --- | --- | --- | --- | --- | --- | --- | --- | --- | --- | --- | --- | --- | --- | --- |
| CN[C@@]1(c2ccccc2Cl)CCCCC1=O | 16.3 | – | – | – | – | – | – | – | – | – | – | – | – | – | – |
| Cn1c(=O)c2c(ncn2C)n(C)c1=O | – | 0.76 | 2.35 | 0.83 | 3.06 | 0.92 | 12.5 | 7.5 | 0.63 | 1.4 | 294 | – | – | – | – |
| C#C[C@]1(O)CC[C@H]2[C@@H]3CCc4cc(OS(=O)(=O)O)ccc4[C@H]3CC[C@@]21C | – | – | – | 21 | 39 | – | – | 8.2 | 2.3 | 4.7 | 504 | 0.011 | – | – | – |
| CC(C)(C)NC(=O)C1CN(Cc2cccnc2)CCN1C[C@@H](O)CC(Cc1ccccc1)C(=O)N[C@H]1c2ccccc2C[C@H]1O (some centres not stated) | – | 0.73 | 15 | 1.45 | 35.7 | 2.2 | 89 | 0.76 | 0.82 | – | 60 | – | – | – | – |
| NCC1(CC(=O)O)CCCCC1 | – | 0.16 | 2.3 | 0.65 | 2.3 | 1.1 | 9.1 | 7 | 0.71 | 1.7 | 318 | – | 0.02 | 0.02 | – |
| CCN(CC)CCNC(=O)c1ccc(NC(C)=O)cc1 | – | 1.9 | 6.4 | – | – | 2.9 | 28 | 7.9 | 1.9 | 4 | 384 | 0.9 | – | 0.58 | 0.913 |
| COc1ccc2c3c1O[C@H]1[C@@H](O)C=C[C@H]4[C@@H](C2)N(C)CC[C@@]341 | – | – | – | – | – | – | – | 3.9 | 3.5 | 15 | 240 | 0.7 | – | 0.92 | – |
| C[C@@H](O)C1C(=O)N2C(C(=O)O)=C(S[C@@H]3CNC(C(=O)Nc4cccc(C(=O)O)c4)C3)[C@H](C)[C@H]12 (some centres not stated) | – | – | – | 0.17 | 0.47 | 0.34 | 10 | 4.4 | 0.12 | 0.45 | 228 | 0.1 | – | – | – |
| CCOc1ccc(NC(C)=O)cc1 | – | 0.89 | 15.7 | – | – | – | – | 1.1 | 1.4 | – | 55.2 | 0.47 | – | – | – |
| CN1CC[C@]23c4c5ccc(O)c4OC2C(=O)CC[C@H]3[C@H]1C5 (some centres not stated) | – | 5.8 | 71 | – | – | – | – | – | – | – | 138 | – | – | – | – |
| Cc1cccc(C)c1NC(=O)C(C)N (configuration not stated) | – | – | – | – | – | 5 | 37.8 | 14 | 1.8 | 2.2 | 720 | – | – | – | – |
| COc1cc(Cc2cnc(N)nc2N)cc(OC)c1OC | – | 1.74 | – | – | – | 2.1 | – | 12 | 1.5 | – | 576 | – | – | 0.51 | 0.708 |
| COc1cc2nc(N3CCN(C(=O)C(C)OC)CC3)nc(N)c2cc1OC (configuration not stated) | – | – | – | – | – | 5.9 | 44.2 | 13.7 | 0.44 | 0.53 | – | – | – | – | – |
| NC(Cc1ccc(O)c(O)c1)C(=O)O (configuration not stated) | – | 0.76 | 23.7 | – | – | – | 109 | 1.2 | 1.7 | 23 | 78 | 0.76 | – | – | – |
| COc1ccc2c3c1OC1C(=O)CC[C@@]4(O)[C@@H](C2)N(C)CC[C@]314 (some centres not stated) | – | – | – | – | – | – | – | – | – | – | – | 0.55 | – | 0.87 | – |
| CC(C)Oc1ccccc1N1CCN(Cc2cccc(C(=O)N3CCCCC3)c2)CC1 | – | – | – | – | – | 1.73 | 39.2 | 4.2 | 1.54 | 6.17 | 276 | – | – | 0.03 | – |
| CCOC(=O)C1[C@@H](OC(=O)c2ccccc2)C[C@@H]2CC[C@H]1N2C (some centres not stated) | – | 2.68 | 42.2 | – | – | – | – | 2 | 1.6 | 13 | 90 | 0.64 | – | – | – |
| Cc1nnc2n1-c1ccc(Cl)cc1C(c1ccccc1Cl)=NC2 | – | – | – | – | – | 3.4 | – | 3.2 | 0.58 | – | 162 | – | – | – | – |
| CCC#CC[C@H](C)[C@H](O)C#C[C@@H]1[C@H]2C/C(=C/COCC(=O)O)C[C@H]2C[C@H]1O | – | – | – | 1.2 | 14.3 | 1 | 49 | 0.35 | 0.08 | 3.8 | 66 | – | – | – | – |
| Nc1nc(N)c2nc(-c3ccccc3)c(N)nc2n1 | – | – | – | – | – | 2.2 | 10.1 | 3.4 | 13 | 63 | 258 | 0.42 | – | – | – |
| NC(=O)c1ncn([C@@H]2O[C@H](CO)[C@@H](O)[C@H]2O)n1 | – | – | – | – | 3.7 | – | 43 | 45 | – | 5.2 | 2700 | – | 0.497 | – | – |
| OC(Cn1cncn1)(Cn1cncn1)c1ccc(F)cc1F | – | 0.7 | 0.65 | – | – | 0.97 | 4.2 | 40 | 0.75 | 0.31 | 1800 | – | – | 0.9 | – |
| CC1(C)S[C@@H]2C(NC(=O)C(C(=O)O)c3ccsc3)C(=O)N2C1C(=O)O (some centres not stated) | – | 0.28 | 4.3 | – | – | – | – | 1.5 | 0.16 | 1.8 | 60 | 0.55 | – | – | – |
| C#CCCCC(=O)c1cc(C(C)(C)C)c(O)c(C(C)(C)C)c1 | – | 24.8 | 30.9 | 10.4 | 14.9 | 7.9 | 41.4 | 22.3 | 12 | 8.9 | 3040 | – | – | – | – |
| O=[N+]([O-])O[C@@H]1CO[C@H]2[C@@H]1OC[C@@H]2O | – | 0.82 | 6.9 | – | – | – | 2.5 | 5.8 | 0.7 | 2 | 246 | – | – | – | – |
| CO[C@@]1(NC(O)=c2sc(=C(C(N)=O)C(=O)O)s2)C(=O)N2C(C(=O)O)=C(CSc3nnnn3C)CS[C@@H]21 | – | 0.25 | 4 | 0.17 | 1.7 | 0.25 | 12.8 | 5.2 | 0.13 | 0.42 | 270 | 0.15 | 0.13 | 0.7 | 0.6 |
| COc1ccnc(C[S+](O)c2nc3ccc(OC(F)F)cc3[n-]2)c1OC (configuration not stated) | – | – | – | – | – | 0.35 | 8.5 | 1.3 | 0.17 | 2.2 | 114 | 0.02 | – | – | – |
| CCCCN1CCCCC1C(=O)Nc1c(C)cccc1C (configuration not stated) | – | 0.7 | 32 | 0.66 | 10 | 2.4 | 76 | 2.12 | 0.665 | 6.5 | 117 | 0.043 | 0.051 | 0.23 | 0.11 |
| CCC1(c2ccccc2)C(=O)NC(=O)NC1=O | – | 0.79 | 0.1 | – | – | 1.02 | 0.8 | 140 | 0.54 | 0.063 | 5940 | – | – | 0.64 | 0.54 |
| CC1(C)S[C@@H]2C(NC(=O)C(NC(=O)N3CCN(S(C)(=O)=O)C3=O)c3ccccc3)C(=O)N2C1C(=O)O (some centres not stated) | – | – | – | – | – | 0.3 | 50 | 0.71 | 0.09 | 2.1 | 72 | 0.7 | – | 0.65 | – |
